According to US20260083723A1, “THERAPEUTIC AGENT OR PROPHYLACTIC AGENT FOR AMYOTROPHIC LATERAL SCLEROSIS” (Toray Industries, Inc., priority 2022, published 2026):

System: Human fibrosarcoma cells (HT-1080 cells)
Test: In vitro inhibitory action against ferroptosis (Erastin-induced cell death, Cell Counting Kit-8)
Format: cell-based
Settings: Evaluation concentration 30 μmol/L, Erastin 3 μmol/L, 24 hours
Description: The inhibitory action against ferroptosis of the tetrahydroquinoline derivative (I) or a pharmaceutically acceptable salt thereof was evaluated with Human fibrosarcoma cells (HT-1080 cells), by using, as an index, the inhibitory action against the cell death induced by treatment with a ferroptosis inducer, Erastin.
HT-1080 cells (ATCC) were cultured in a mixture (hereinafter referred to as vehicle) composed of DMEM/F12 (Thermo Fisher Scientific, Inc.), a final concentration of 10% fetal bovine serum (Thermo Fisher Scientific, Inc.), and a final concentration of 1% penicillin-streptomycin solution (Nacalai Tesque, Inc.). Cells were seeded into 96-well plates (Corning Inc.) at 5×10^4 cells/well and cultured overnight.
A test compound was dissolved in DMSO, and the resulting solution was diluted in the vehicle to a final concentration of 1% DMSO and then used. […] Twenty-four hours after the addition of Erastin, 5 μL of Cell Counting Kit-8 (Dojindo Laboratories) was added to each well and incubated for 4 hours, and the absorbance at 450 nm was then measured for each well (N=2). The average absorbance value at 450 nm was calculated from the absorbance values of the wells, and the inhibition rate of ferroptosis by the test compound (hereinafter referred to as ferroptosis inhibition rate, %) was then calculated based on Equation 1.

Compound	Ferroptosis inhibition rate (%)
7-fluoro-(1H-pyrazol-4-yl)-1,2,3,4-tetrahydroquinoline [Example 140]	72.81

System: not listed separately
Test: In vitro radical scavenging action (DPPH method)
Settings: 1.2-100 μmol/L, 30 minutes at room temperature, absorbance at 517 nm
Description: The radical scavenging action of a test compound can be evaluated using an in vitro test and, for example, by a method (Antioxidants, 2019, vol. 258) using a stable radical, 1,1-diphenyl-2-picrylhydrazil (DPPH).
Radical scavenging action was evaluated using the DPPH method in the compound of Comparative Example 1, which is a tetrahydroquinoxaline derivative, and in the tetrahydroquinoline derivative (I) or a pharmaceutically acceptable salt thereof. The DPPH method was performed using an antioxidant capacity measurement kit (Dojindo Laboratories).
A test compound was dissolved in DMSO, and the resulting solution was then mixed with an assay buffer and a DPPH solution, which are included in the kit, to a total volume of 200 μL to obtain a final concentration of 10% DMSO, and the reaction was allowed to proceed. Wells added with […] ferrostatin-1, a radical scavenger, were grouped as “control,” and wells not added with test compound were grouped as “background”. The test compound was serially diluted 3-fold starting from a maximum concentration of 100 μmol/L, and the diluted test compound (1.2, 3.7, 11.1, 33.3, or 100 μmol/L) was added and allowed to react at room temperature. Thirty minutes after the reaction, the absorbance at 517 nm was measured, and the average absorbance value was calculated (N=2). The radical scavenging action of the test compound (hereinafter referred to as radical scavenging rate, %) was calculated based on Equation 2. The EC50 value of the test compound was calculated from the radical scavenging rate.
A note “no detection of radical scavenging action (N.D.),” is given to compounds with a EC50 of >100 μmol/L.

EC50 [µM]	Compound
> 100	CC1(C)CN(C(=O)Cc2ccc3c(c2)CCC(c2ccccc2)N3)C1 (stereo not drawn) [Example 146, 1-(3,3-dimethylazetidin-1-yl)-2-(2-phenyl-1,2,3,4-tetrahydroquinolin-6-yl)ethan-1-one]
> 100	NS(=O)(=O)c1ccc(C2CCc3cc(Cl)ccc3N2)cc1 (stereo not drawn) [Example 117, 4-(6-chloro-1,2,3,4-tetrahydroquinolin-2-yl)benzenesulfonamide]
> 100	COC1CN(C(=O)Cc2ccc3c(c2)CCC(c2ccccc2)N3)C1 (stereo not drawn) [Example 147, 1-(3-methoxyazetidin-1-yl)-2-(2-phenyl-1,2,3,4-tetrahydroquinolin-6-yl)ethan-1-one]
> 100	O=C(Cc1ccc2c(c1)CCC(c1ccccc1)N2)NC1COC1 (stereo not drawn) [Example 148, N-(oxetan-3-yl)-2-(2-phenyl-1,2,3,4-tetrahydroquinolin-6-yl)acetamide]
> 100	CC(C)(C)NC(=O)Cc1ccc2c(c1)CCC(c1ccccc1)N2 (stereo not drawn) [Example 61, N-(tert-butyl)-2-(2-phenyl-1,2,3,4-tetrahydroquinolin-6-yl)acetamide]
> 100	Cc1ccc2c(c1)CCC(c1ccc(C(N)=O)cc1)N2 (stereo not drawn) [Example 99, 4-(6-methyl-1,2,3,4-tetrahydroquinolin-2-yl)benzamide]
> 100	c1ccc([C@@H]2CCc3ccccc3N2)cc1 [Example 3, (S)-2-phenyl-1,2,3,4-tetrahydroquinoline]
> 100	O=C(Cc1ccc2c(c1)CCC(c1ccccc1)N2)N1CCC1 (stereo not drawn) [Example 151, 1-(azetidin-1-yl)-2-(2-phenyl-1,2,3,4-tetrahydroquinolin-6-yl)ethan-1-one]
> 100	Cc1ccc2c(c1)CCC(c1ccc(S(N)(=O)=O)cc1)N2 (stereo not drawn) [Example 119, 4-(6-methyl-1,2,3,4-tetrahydroquinolin-2-yl)benzenesulfonamide]
> 100	O=C(Cc1ccc2c(c1)CCC(c1ccccc1)N2)N1CCNCC1 (stereo not drawn) [Example 158, 2-(2-phenyl-1,2,3,4-tetrahydroquinolin-6-yl)-1-(piperazin-1-yl)ethan-1-one]
> 100	NS(=O)(=O)c1ccc(C2CCc3cc(F)ccc3N2)cc1 (stereo not drawn) [Example 108, 4-(6-fluoro-1,2,3,4-tetrahydroquinolin-2-yl)benzenesulfonamide]
> 100	FC(F)(F)c1ccc(C2CCc3ccccc3N2)cc1 (stereo not drawn) [Example 29, 2-(4-(trifluoromethyl)phenyl)-1,2,3,4-tetrahydroquinoline]

More lines, now with the values behind:

Compound	EC50 [µM]
NC(=O)c1ccc(C2CCc3cc(F)ccc3N2)cc1 (stereo not drawn) [Example 132, 4-(6-fluoro-1,2,3,4-tetrahydroquinolin-2-yl)benzamide]	> 100
NC(=O)c1ccc(C2CCc3ccccc3N2)cc1 (stereo not drawn) [Example 38, 4-(1,2,3,4-tetrahydroquinolin-2-yl)benzamide]	> 100
Clc1ccc2c(c1)NC(c1ccccc1)CC2 (stereo not drawn) [Example 69, 7-chloro-2-phenyl-1,2,3,4-tetrahydroquinoline]	> 100
Fc1ccc2c(c1)CCC(c1ccccc1)N2 (stereo not drawn) [Example 82, 6-fluoro-2-phenyl-1,2,3,4-tetrahydroquinoline]	> 100
NC(=O)c1ccc(C2CCc3cc(Cl)ccc3N2)cc1 (stereo not drawn) [Example 122, 4-(6-chloro-1,2,3,4-tetrahydroquinolin-2-yl)benzamide]	> 100
NC(=O)Cc1ccc2c(c1)CCC(c1ccccc1)N2 (stereo not drawn) [Example 60, 2-(2-phenyl-1,2,3,4-tetrahydroquinolin-6-yl)acetamide]	> 100
NC(=O)c1ccc(C2CCc3ccccc3N2)cc1 (stereo not drawn) [Example 37, 4-(1,2,3,4-tetrahydroquinolin-2-yl)benzamide]	> 100
Cl.c1ccc(C2CCc3ccccc3N2)cc1 (stereo not drawn) [Example 1, 2-phenyl-1,2,3,4-tetrahydroquinoline hydrochloride]	> 100
CC(=O)Nc1ccc(C2CCc3ccccc3N2)cc1 (stereo not drawn) [Example 21, N-(4-(1,2,3,4-tetrahydroquinolin-2-yl)phenyl)acetamide]	> 100
NS(=O)(=O)c1ccc(C2CCc3cc(F)ccc3N2)cc1 (stereo not drawn) [Example 109, 4-(6-fluoro-1,2,3,4-tetrahydroquinolin-2-yl)benzenesulfonamide]	> 100
Cc1cccc2c1CCC(c1ccc(S(N)(=O)=O)cc1)N2 (stereo not drawn) [Example 112, 4-(5-methyl-1,2,3,4-tetrahydroquinolin-2-yl)benzenesulfonamide]	> 100
NS(=O)(=O)c1ccc(C2CCc3ccccc3N2)cc1 (stereo not drawn) [Example 32, 4-(1,2,3,4-tetrahydroquinolin-2-yl)benzenesulfonamide]	> 100
CS(=O)(=O)Nc1ccc(C2CCc3ccccc3N2)cc1 (stereo not drawn) [Example 136, N-(4-(1,2,3,4-tetrahydroquinolin-2-yl)phenyl)methanesulfonamide]	> 100
O=C(Cc1ccc2c(c1)CCC(c1ccccc1)N2)N1CC(F)(F)C1 (stereo not drawn) [Example 160, 1-(3,3-difluoroazetidin-1-yl)-2-(2-phenyl-1,2,3,4-tetrahydroquinolin-6-yl)ethan-1-one]	> 100

System: superoxide dismutase 1 (SOD1) G93A transgenic mice
Test: Assessment of motor dysfunction in amyotrophic lateral sclerosis model mouse (hind limb extension test)
Format: in vivo
Settings: 100 mg/kg orally once daily, five times a week, from 56 days of age for 10 weeks; male SOD1 G93A transgenic mice; n=9
Description: The effect of the tetrahydroquinoline derivative (I) or a pharmaceutically acceptable salt thereof on the onset of a motor dysfunction in superoxide dismutase 1 (SOD1) G93A transgenic mice that are amyotrophic lateral sclerosis model mice was tested. The tetrahydroquinoline derivative (I) or a pharmaceutically acceptable salt thereof was evaluated using the compound of Example 1. The amyotrophic lateral sclerosis model mice used were transgenic mice overexpressing human superoxide dismutase 1 (SOD1) with G93A mutation (Jackson Laboratories #004435). Male transgenic mice and wild-type female C57BL/6J mice from Charles River were mated. The tail tips of the born offspring mice were used for genotyping. The obtained male transgenic mice were used for the evaluation. The test substance (compound of Example 1) was prepared as a suspension with the required concentration (10 mg/mL) using 0.5 w/v % methylcellulose as the vehicle, and was administered repeatedly and orally, once daily, five times a week, at a dosing volume of 10 mL/kg, or 100 mg/kg, starting at 56 days of age and continuing for 10 weeks (50 doses in total) until the mice reached 126 days of age. A group administered repeatedly and orally with the compound of Example 1 was termed the “Example 1” group (n=9). In addition, a group administered with 0.5 w/v % methylcellulose in the same volume, frequency, and method as the compound of Example 1 was termed the “vehicle” group (n=6). Whenever possible, litters were divided into both groups. Starting from the beginning of administration, a hind limb extension test was conducted before each dose to evaluate the motor function. […] The hind limb extension test was performed five times a week.

Compound	median value of the onset age in days
Cl.c1ccc(C2CCc3ccccc3N2)cc1 (stereo not drawn) [Example 1, 2-phenyl-1,2,3,4-tetrahydroquinoline hydrochloride]	121.0 days of age

Same assay, conditions: 100 mg/kg orally once daily, five times a week, from 56 days of age for 10 weeks; significantly higher than vehicle group

Compound	age of onset in days vs vehicle group, log-rank (Mantel-Cox) test p
Cl.c1ccc(C2CCc3ccccc3N2)cc1 (stereo not drawn) [Example 1, 2-phenyl-1,2,3,4-tetrahydroquinoline hydrochloride]	< 0.05

Same assay, conditions: compared to the vehicle group

Compound	effect on onset of motor dysfunction in amyotrophic lateral sclerosis model mice (in words)
Cl.c1ccc(C2CCc3ccccc3N2)cc1 (stereo not drawn) [Example 1, 2-phenyl-1,2,3,4-tetrahydroquinoline hydrochloride]	delay the onset
